Two compounds from US20240279684A1, “CYTOSOLIC DELIVERY OF GENOME EDITING TOOLS” (SAPREME TECHNOLOGIES B.V., priority 2021, published 2024) can be followed below.

Entries after “also recorded” stand apart in the source; their conditions may differ.

One data set relates to Neuro-2A cells. Description: Transfection efficiency of PD-nanoplexes with/without saponin, flow cytometry (GFP). It counts as cell-based, murine. How it is done: (§1) After biophysical characterisation had established that nanoplexes of the large plasmid DNA and the poly-lysine peptide were formed, cell experiments were performed: transfections. […] Without wishing to be bound by any theory, the latter effect is most likely due to insufficient complexing of DNA. […] JIMT-1-cells (DSMZ no.: ACC 589) and Neuro-2A- cells (DSMZ no.: ACC 148) were transfected with nanoplexes containing relatively large Cas9-GFP-plasmid, with and without GE1741-Co-application or SO1861-Co-application at a non-toxic concentration, when the cell which is to be transfected is considered. The transfection efficiency of all transfection conditions was measured after 48 h incubation time using flow cytometry by comparison to the negative control in terms of fluorescence intensity (for example, cells contacted with the nanoparticles in the absence of saponin). The efficiency of GE1741-based transfections and SO1861-based transfections was also compared with efficiency of Lipofectamine3000™-based transfection of the nanoparticles. Transfections were performed according to protocols commonly known and applied in the field (Clochard et al., 2020; Sama et al., 2018a; Sama et al., 2017; Sama et al., 2018b). […] Transfection efficiency of GE1741-mediated PD-transfection and SO1861-mediated PD-transfections on Neuro-2A cells and JIMT-1 cells was assessed. Cells were transfected with Cas9-GFP-DNA containing PD-nanoplexes, with and without GE1741 or SO1861 (final concentration of the saponin was 2 μg/ml). In Neuro-2A cells and JIMT-1 cells transection efficiency varied between 30% and 40%. Lipofectamin3000 served as reference. n≥3; a significant difference compared to the GE1741-free transfections or SO1861-free transfections was apparent, U-test, p≤0.05.
FIG. 4A, B. Transfection efficiency of saponin-mediated PD (Cas9-GFP)-transfections on Neuro-2A cells (FIG. 4A) and on JIMT-1-cells (FIG. 4B). Neuro-2A cells (A) and JIMT-1 cells (B) were transfected with GFP-DNA (i.e. a plasmid comprising the GFP DNA) bearing PD-nanoplexes or with Cas9-GFP-DNA bearing PD-nanoplexes, with and without the highest non-toxic saponin Co-administration (GE1741 Co-administration at 2 μg/ml or SO1861 Co-administration at 2 μg/ml). While GFP-DNA-transfections reached high efficiencies of around 70%, approximately 40% of all cells expressed GFP after Cas9-GFP-transfection. […] N≥3; *: significant difference compared to the saponin-free transfection (only nuclease), U-test.
JIMT-1-cells (human breast carcinoma) and Neuro-2A-cells (murine neuroblastoma) were transfected with nanoplexes, containing Cas9-GFP-plasmid, with and without saponin GE1741-co-application or saponin SO1861-co-application (that is to say, the saponin is added to the cell culture together with the addition of the nanoparticles comprising the nucleic acid that is to be transfected in the presence of the saponin), in a non-toxic concentration when the saponins are considered. The mass ratios for the peptide and the nucleic acid (plasmid DNA) in the nanoparticles were selected considering the dynamic light scattering (DLS) measurements and considering the aforementioned earlier assessed toxicity and earlier performed efficiency studies. The transfection efficiency of all transfection conditions was measured after 48 h incubation time via flow cytometry by comparison to the negative control in terms of fluorescence intensity (FIG. 4). […]

The subject of the next data set is JIMT-1 cells. The description is as above. To be noted: GFP-DNA PD-nanoplexes, saponin 2 μg/ml. It is filed as cell-based, human. How it is done: as §1, with “Cells were transfected with Cas9-GFP-DNA containing PD-nanoplexes, with and without GE1741 or SO1861 (final concentration of the saponin was 2 μg/ml). In Neuro-2A cells and JIMT-1 cells transection efficiency varied between 30% and 40%. Lipofectamin3000 served as reference. n≥3; a significant difference compared to the GE1741-free transfections or SO1861-free transfections was apparent, U-test, p≤0.05.” left out

The subject of data set [1] is cells with which the nanoplexes are contacted. Description: Toxicity of saponin towards cells during transfection. It counts as cell-based. From the text:
It is part of the invention that the method or the use of the invention is characterized in that the nanoparticle comprises the nanoparticle-forming compound, such as a peptide, such as poly-lysine, and the nucleic acid in a mass ratio in a range of 3:1 to 15:1, preferably in a range of 3:1 to 9:1. Typically, the nanoparticle-forming compound is a poly-lysine peptide such as K16 peptide. Preferred is the method wherein the nucleic acid is a plasmid DNA, at least encoding for a Cas, preferably Cas9 (SEQ ID NO: 1), and optionally also encoding for the gRNA, and wherein the nanoparticles comprise in addition to the plasmid DNA at least one poly-lysine peptide, preferably poly-lysine K16 peptide (poly-lysine peptide consisting of sixteen lysine residues). Alternatively, the poly-lysine peptide is a peptide consisting of 8-25 lysine residues, preferably 10-20, more preferably 12-18. High in vitro transfection efficiency is obtained with the method of the invention when nanoparticles encompassing plasmid DNA, K16 peptide are prepared and applied, and are contacted with cells in the presence of a saponin selected from GE1741 and SO1861, and preferably the saponin is GE1741. Typically, the saponin concentration during transfection of the plasmid DNA into selected target cells in vitro is 1 μg/mL-5 μg/mL, preferably 2-4 μg/mL. […] Cells are typically contacted with a composition comprising the nanoplexes and a separate composition comprising the saponin, preferably GE1741. Thus, typically, the nanoparticles comprise the poly-lysine peptide and the nucleic acid, for example at least a plasmid DNA encoding for a Cas, preferably Cas9 (SEQ ID NO: 1), or a Cas with at least 90% sequence identity with this Cas9, preferably 90-99.5% sequence identity, such as 92%, 93%, 94%, 95% or 95-99%.

In a further data set the test system is Neuro-2A-cells. Description: Puromycin selection after knock-in of the GFP-Puromycin-LDS. It counts as cell-based, murine. From the text:
FIG. 12A, B. Puromycin selection after Knock-In of the GFP-Puromycin-LDS. After the knock-out of solute carrier Slc26a4 and integration of GFP-Puromycin-Donor sequence, the cells were cultivated for seven passages until Puromycin selection was started. Different concentrations of Puromycin were applied and the cell viability was observed (A, B). […] Plate wells in rows A-C are numbered 1-4 from left to right. Wells C3-4 were empty.
Subsequent to the co-transfection of Cas9-gRNA-Plasmid and LDS in the presence of GE1741, a Puromycin-mediated selection enabled the isolation of transfected cells and facilitates the identification of donor sequence integration into the genome. For this purpose, different Puromycin concentrations were applied to the transfected cells, in the presence of GE1741. The optimal puromycin concentration should optimally kill non-transfected/non-resistant cells, while sparing cells, which received the resistance through the donor sequence.

For `CC(=O)OC1C(C)OC(OC2C(C)OC(OC(=O)[C@]34CCC(C)(C)CC3C3=CCC5[C@@]6(C)CC[C@H](OC7OC(C(=O)O)C(O)C(OC8OCC(O)C(O)C8O)C7OC7OC(CO)C(O)C(O)C7O)[C@@](C)(C=O)C6CC[C@@]5(C)C3(C)CC4O)C(OC3OC(C)C(OC4OCC(O)C(OC5OC(CO)C(O)C(O)C5O)C4O)C(O)C3O)C2O)C(O)C1OC1OCC(O)C(O)C1O` (stereo partly drawn) [SO1861], the “transfection efficiency (cells expressing GFP)” value in the data set with Neuro-2A cells (GFP-DNA PD-nanoplexes, saponin 2 μg/ml, Neuro-2A) is reported as “around 70%”; in the data set on JIMT-1 cells, “around 70%”. Besides, the “transfection efficiency compared with Lipofectamine3000” value in the data set on Neuro-2A cells (nanoplexes of relatively large DNA plasmid and poly-lysine, saponin present) was “higher than obtainable with current gold standard Lipofectamine3000™”. For the same compound, the “highest non-toxic saponin Co-administration” value in data set [1] (Neuro-2A and JIMT-1 transfections) came out at 2 µg/mL. Besides, in data set [1] (saponin concentration of 1 μg/mL-5 μg/mL, applied together with the nanoplexes), the “toxic activity towards the cells” value is listed as “not exhibiting toxic activity”.
Take `COc1ccc(C[C@H](N)C(=O)N[C@H]2[C@@H](O)[C@H](n3cnc4c(N(C)C)ncnc43)O[C@@H]2CO)cc1` [Puromycin]: the “effect on cells (selection)” value in the data set on Neuro-2A-cells (0.5 μg/mL) was “no significant effect”; in the data set on Neuro-2A-cells (1 μg/mL), “incomplete selection; also recorded: decrease of confluence”; in the data set with Neuro-2A-cells (2 μg/mL), “decrease of confluence”; in the data set with Neuro-2A-cells (2-3 μg/mL) it was “diminished nearly all cells”.
